# Measurements taken from patent publication US20240287081A1, “PERFLUOROALKANE SUBSTITUTED PYRAZOLO[3,4-D]PYRIMIDIN AND PYRROLO[2,3-D]PYRIMIDIN COMPOUNDS AND USES THEREOF” (ICAHN SCHOOL OF MEDICINE AT MOUNT SINAI, priority 2021, published 2024).
# Entries after “also recorded” stand apart in the source; their conditions may differ.
# What was measured:
# [1] = tested on: HCC tumor organoids, BC (B-Catenin); assay: 3D HCC tumor organoid viability, BC model; format: cell-based; conditions: 5.0 μM, viability three days post drug administration
# Experimental: (§1) For assays in HCC tumor organoids, 96 well plates were first coated with a 50:50 solution of basal media:Matrigel ([…]), which polymerized for 15 minutes at 37° C. Tumor organoids were taken out of Matrigel, broken, and washed. Tumor organoids were seeded at 1,000 cells per well and were treated the following day with single doses of drugs in technical triplicate. Final DMSO concentrations were kept below 0.5%. Cell viability was measured three days post drug administration with either luminescence from CellTiter-Glo or absorbance at 560 and 590 nm from resazurin. Viability data was analyzed by normalizing individual drug-treated well values to DMSO-treated wells (BC=B-Catenin; SR=sorafenib resistant). Results of 3D HCC cell line data for pyrazolo- and pyrrolopyrimidine compounds at 0.5 μm (FIGS. 22A-F), 0.05 μm (FIGS. 23A-F), and 5.0 μm (FIGS. 24A-F) were obtained. […] In the BC model, at 5.0 μM, the top ten compounds were: APS-8-100-4, APS-8-52-3, APS-8-51-4, APS-7-25-2, APS-8-100-3, APS-8-51-3, APS-8-50-4, APS-8-52-4, and APS-7-38. In the SR model, at 5.0 μM, the top ten compounds were: APS-8-51-3, APS-8-50-4, APS-8-51-4, APS-8-52-3, APS-8-50-3, APS-7-52-2, APS-8-52-4, APS-7-52-1, and APS-8-100-4.
# [2] = tested on: ptc>dRet^M955T flies; assay: Fly rescue assay (Drosophila MTC model ptc>dRet^M955T); format: in vivo; conditions: compound in fly food; for rescue (percent viability of adult flies, adults/pupae×100): 13 d at 25° C.
# Experimental: Kinase-mutated fly stocks were obtained from Bloomington Drosophila Stock Center (BDSC; Bloomington, IN). The active mutant form of Drosophila Ret (dRet^955T) carries an M955T mutation corresponding to the M918T mutation commonly reported for multiple endocrine neoplasia (MEN) type 2B patients12,14,16,34. The ptc-gal4, UAS-GFP;UAS-dRet^M955T/SM5tub-gal80-TM6B transgenic flies were prepared according to standard protocols and crossed with non-transgenic w-flies (BDSC) to generate ptc-gal4, UAS-GFP; UAS-dRet^M955T(ptc>dRet^M955T) flies for chemical screening.
# All drugs were synthesized in-house. All compounds were dissolved in DMSO (Sigma-Aldrich; St. Louis, MO) and mixed with semi-defined fly medium (BDSC) to make drug food (0.1% final DMSO concentration). For drug screening, ptc>dRet^M955T embryos were raised until adulthood on drug food for 13 d at 25° C. The number of empty pupal cases (i.e., adults) ? that of total pupal cases (P) to determine % viability. Fly randomization was used throughout the assays.
# In this model, compounds are assessed based on their ability to suppress oncogenic Ret^M955T-induced tumors, which can be quantified as ‘rescue’ from lethality. […] The baseline viability of ptc>Ret^1955T flies was calibrated to zero, which creates a high bar for rescue but also reduces false-positive hits. Hundreds of flies are tested per condition (typical n values are […] administered through fly food.
# [3] = tested on: RET (WT and M918T); assay: NanoBRET cell based target engagement assay; conditions: RET-Nluc in HEK 293T cells; for cellular IC50 against RET, ranking in words: pyrazolo- and pyrrolopyrimidine series
# Experimental: Assays were completed in duplicate. […] FIG. 8D is a graph of the cell-based target engagement for the indicated compounds against wild-type and M918T RET. IC50 values were determined based on 8-point titration curves of free ligand. Competition assays were completed in technical triplicate against full-length human RET-Nluc expressed in 293T cells, complexed with an active-site fluorescent tracer.
# In this assay, a bioluminescence resonance energy transfer (BRET) signal is generated between nanoLuciferase tagged RET (expressed in HEK 293T cells) and an active-site based fluorescent tracer. […] Using this assay, in vivo binding was determined for a series of compounds against mutant (M918T) and wild-type RET (FIG. 8D).
# [4] = tested on: HCC tumor organoids, SR (sorafenib resistant); assay: 3D HCC tumor organoid viability, SR model; format: cell-based; conditions: 5.0 μM, viability three days post drug administration
# Experimental: as §1
# [5] = tested on: panel of 468 purified human kinases; assay: In vitro kinase percent inhibition, panel of 468 kinases (DiscoverX); format: binding; conditions: 1 μM; for binding to wild-type RET and RET^M918T, in words: kinase panel; for binding profile / selectivity across the kinome, in words: panel of 468 kinases
# Experimental: Compounds were assayed against a panel of 468 purified human kinases (DiscoverX) to measure percentage inhibition values and derive kinome profiles (FIGS. 3B-3C). All compounds were screened at 1 μM, using two experimental replicates to determine percent inhibition values. Detailed procedures for kinase reactions and assay formats are described at http://www.discoverx.com. Raw data sets for individual compounds were filtered based on the variance of experimental replicates (cutoff=average variance+standard deviation).
compound,measurement,setting,value
"CC(C)n1cc(-c2ccc(NC(=O)Nc3cc(C(F)(F)C(F)(F)F)ccc3F)cc2)c2c(N)ncnc21 [APS-7-38, 1-(4-(4-Amino-7-isopropyl-7H-pyrrolo[2,3-d]pyrimidin-5-yl)phenyl)-3-(2-fluoro-5-(perfluoroethyl)phenyl)urea]","ranking by inhibition of cell proliferation, BC model",[1],top ten
"CC(C)n1cc(-c2ccc(NC(=O)Nc3ccc(C(F)(C(F)(F)F)C(F)(F)C(F)(F)F)cc3)cc2)c2c(N)ncnc21 (stereo not drawn) [APS-8-82-2, 1-(4-(4-Amino-7-isopropyl-7H-pyrrolo[2,3-d]pyrimidin-5-yl)phenyl)-3-(4-(perfluorobutan-2-yl)phenyl)urea 2,2,2-trifluoroacetate]","rescue activity in the fly model, in words",[2],exceptional in vivo activity
same,"rescue (percent viability of adult flies, adults/pupae×100)","[2]; baseline viability 0%, 2,2,2-trifluoroacetate",100%
same,"cellular IC50 against RET, ranking in words",[3],highest IC50 values
"CC(C)n1nc(-c2ccc(NC(=O)Nc3ccc(C(F)(F)C(F)(F)C(F)(F)C(F)(F)F)cc3)cc2)c2c(N)ncnc21 [APS-8-52-3, 1-(4-(4-Amino-1-isopropyl-1H-pyrazolo[3,4-d]pyrimidin-3-yl)phenyl)-3-(4-(perfluorobutyl)phenyl)urea]","ranking by inhibition of cell proliferation, SR model",[4],top ten
same,"ranking by inhibition of cell proliferation, BC model",[1],top ten
"CO[C@]1(C(=O)N[C@@H](C)c2ccc(-n3cc(F)cn3)nc2)CC[C@H](c2nc(C)cc(Nc3cc(C)[nH]n3)n2)CC1 [Blu667, reference compound]","cellular IC50 wild-type RET versus M918T mutant, in words",[3],slightly lower IC50 values towards wild-type RET over the M918T mutant
CNC(=O)c1cc(Oc2ccc(NC(=O)Nc3ccc(C(C)(F)C(C)(C)C)cc3)cc2)ccn1 (stereo not drawn) [compound 44],"rescue (percent viability of adult flies, adults/pupae×100)",[2]; baseline viability 0%,55%
"CC(C)n1nc(-c2ccc(NC(=O)Nc3ccc(C(F)(C(F)(F)F)C(F)(F)C(F)(F)F)cc3)cc2)c2c(N)ncnc21 (stereo not drawn) [APS-8-6-2, 1-(4-(4-Amino-1-isopropyl-1H-pyrazolo[3,4-d]pyrimidin-3-yl)phenyl)-3-(4-(perfluorobutan-2-yl)phenyl)urea]","binding to wild-type RET and RET^M918T, in words",[5],more potent than 43 on wild-type and mutant RET
same,"binding to wild-type RET and RET^M918T, in words",[5]; listed as 8-6-2,highly potent on both wild-type and RET^M918T
same,"binding profile / selectivity across the kinome, in words",[5],generally promiscuous KI
same,"binding profile / selectivity across the kinome, in words",[5]; listed as 8-6-2,overall selectivity profile in between 4-9-8 and 8-82-1
same,"rescue activity in the fly model, in words",[2],one of the highest rescues in the MTC fly assay; also recorded: exceptional in vivo activity
same,"rescue (percent viability of adult flies, adults/pupae×100)","[2]; baseline viability 0%, listed as 65",99%
same,"cellular IC50 against RET, ranking in words",[3],highest IC50 values
"CC(C)n1cc(-c2ccc(NC(=O)Nc3cc(C(F)(C(F)(F)F)C(F)(F)F)ccc3F)cc2)c2c(N)ncnc21 [APS-7-25-2, 1-(4-(4-Amino-7-isopropyl-7H-pyrrolo[2,3-d]pyrimidin-5-yl)phenyl)-3-(2-fluoro-5-(perfluoropropan-2-yl)phenyl)urea]","ranking by inhibition of cell proliferation, BC model",[1],top ten
"CC(C)n1nc(-c2ccc(NC(=O)Nc3cc(C(F)(F)C(F)(F)F)ccc3F)cc2)c2c(N)ncnc21 [APS-5-86-2, 1-(4-(4-Amino-1-isopropyl-1H-pyrazolo[3,4-d]pyrimidin-3-yl)phenyl)-3-(2-fluoro-5-(perfluoroethyl)phenyl)urea]","rescue (percent viability of adult flies, adults/pupae×100)",[2]; baseline viability 0%,92%
same,"cellular IC50 wild-type RET versus M918T mutant, in words",[3],not observed
"CC(C)n1nc(-c2ccc(NC(=O)Nc3cccc(C(F)(F)C(F)(F)C(F)(F)C(F)(F)F)c3)cc2)c2c(N)ncnc21 [APS-7-46-2, 1-(4-(4-Amino-1-isopropyl-1H-pyrazolo[3,4-d]pyrimidin-3-yl)phenyl)-3-(3-(perfluorobutyl)phenyl)urea]","rescue (percent viability of adult flies, adults/pupae×100)",[2]; baseline viability 0%,over 80%
"COc1ccc(CN2C3CC2CN(c2ccc(-c4cc(OCC(C)(C)O)cn5ncc(C#N)c45)cn2)C3)cn1 [Loxo292, reference compound]","cellular IC50 wild-type RET versus M918T mutant, in words",[3],slightly lower IC50 values towards wild-type RET over the M918T mutant
"CC(C)n1cc(-c2ccc(NC(=O)Nc3ccc(C(F)(F)C(F)(F)C(F)(F)C(F)(F)F)cc3)cc2)c2c(N)ncnc21 [APS-8-52-4, 1-(4-(4-Amino-7-isopropyl-7H-pyrrolo[2,3-d]pyrimidin-5-yl)phenyl)-3-(4-(perfluorobutyl)phenyl)urea]","ranking by inhibition of cell proliferation, SR model",[4],top ten
same,"ranking by inhibition of cell proliferation, BC model",[1],top ten
"CNC(=O)c1cc(Oc2ccc(NC(=O)Nc3ccc(Cl)c(C(F)(F)F)c3)c(F)c2)ccn1 [regorafenib, reference compound]","cellular IC50 wild-type RET versus M918T mutant, in words",[3],slightly lower IC50 values towards wild-type RET over the M918T mutant
"CC(C)n1cc(-c2ccc(NC(=O)Nc3cccc(C(F)(F)C(F)(F)C(F)(F)F)c3)cc2)c2c(N)ncnc21.O=C(O)C(F)(F)F [APS-7-52-2, 1-(4-(4-Amino-7-isopropyl-7H-pyrrolo[2,3-d]pyrimidin-5-yl)phenyl)-3-(3-(perfluoropropyl)phenyl)urea 2,2,2-trifluoroacetate]","ranking by inhibition of cell proliferation, SR model",[4],top ten
"CC(C)n1nc(-c2ccc(NC(=O)Nc3cccc(C(F)(F)C(F)(F)C(F)(F)F)c3)cc2)c2c(N)ncnc21.O=C(O)C(F)(F)F [APS-7-52-1, 1-(4-(4-Amino-1-isopropyl-1H-pyrazolo[3,4-d]pyrimidin-3-yl)phenyl)-3-(3-(perfluoropropyl)phenyl)urea 2,2,2-trifluoroacetate]","ranking by inhibition of cell proliferation, SR model",[4],top ten
"CC(C)n1nc(-c2ccc(NC(=O)Nc3ccc(C(F)(F)C(F)(F)F)cc3)cc2)c2c(N)ncnc21 [APS-8-100-3, 1-(4-(4-Amino-1-isopropyl-1H-pyrazolo[3,4-d]pyrimidin-3-yl)phenyl)-3-(4-(perfluoroethyl)phenyl)urea]","rescue activity in the fly model, in words",[2],exceptional in vivo activity
same,"rescue (percent viability of adult flies, adults/pupae×100)",[2]; baseline viability 0%,100%
same,"cellular IC50 against RET, ranking in words",[3],lowest IC50 values among the para-substituted compounds tested
same,"ranking by inhibition of cell proliferation, BC model",[1],top ten
"CC(C)n1nc(-c2ccc(NC(=O)Nc3ccc(C(F)(C(F)(F)F)C(F)(F)F)cc3)cc2)c2c(N)ncnc21 [APS-8-50-3, 1-(4-(4-Amino-1-isopropyl-1H-pyrazolo[3,4-d]pyrimidin-3-yl)phenyl)-3-(4-(perfluoropropan-2-yl)phenyl)urea]","ranking by inhibition of cell proliferation, SR model",[4],top ten
"CC(C)n1cc(-c2ccc(NC(=O)Nc3ccc(C(F)(C(F)(F)F)C(F)(F)F)cc3)cc2)c2c(N)ncnc21 [APS-8-50-4, 1-(4-(4-Amino-7-isopropyl-7H-pyrrolo[2,3-d]pyrimidin-5-yl)phenyl)-3-(4-(perfluoropropan-2-yl)phenyl)urea]","ranking by inhibition of cell proliferation, SR model",[4],top ten
same,"ranking by inhibition of cell proliferation, BC model",[1],top ten
"CC(C)n1nc(-c2ccc(NC(=O)Nc3cccc(C(F)(C(F)(F)F)C(F)(F)C(F)(F)F)c3)cc2)c2c(N)ncnc21 (stereo not drawn) [APS-8-56-3, 1-(4-(4-Amino-1-isopropyl-1H-pyrazolo[3,4-d]pyrimidin-3-yl)phenyl)-3-(3-(perfluorobutan-2-yl)phenyl)urea 2,2,2-trifluoroacetate]","cellular IC50 against RET, ranking in words",[3],highest IC50 values
